Read-outs that look alike come from different tables or passages of the source. Where no end group is shown, it is not given here.
How the values were obtained:
[1] = system: human U937 cells; assay: human whole genome array of U937-derived macrophages; type: cell-based; details: 13.5 μmol/L, 48 h
Procedure: 1.1.1 U937 cells are cultured in a 6-well plate at 3×10^6 cells/mL per well overnight, and PMA (25 ng/mL) is added on the next day for induction for 48 h. After the cells adhere, cultured supernatant is pipetted away. The cells are treated with mPEG-SC20k-HM-3 (test group) or a medium (negative control group) at 13.5 μmol/L at 37° C. for 48 h.
1.1.2 1×10^6 cells are taken from each of two groups of samples, and the solution has […], and is centrifuged for 5 min. The supernatant is removed. 1 mL of TRIZOL lysis solution is added and mixed uniformly, and the solution stands at room temperature for 5 min.
1.2 DNase I digest the RNA sample to remove any genomic DNA that may be contained therein. […]
1.8.2 Sample adding: An membrane on the PCR Array is opened, 10 μL of mixture is added to each well corresponding to the PCR Array, and a lid is closed to seal the PCR Array; after a real-time quantitative PCR program is set, the PCR Array is placed on the real-time quantitative PCR instrument for PCR reaction, and the prepared PCR Array is placed on ice before the PCR program is set. […]
1.9.3 2^−ΔΔCt values of the test group and the control group are calculated to analyze the difference in expression of the corresponding genes between the test group and the control group. […]

[2] = system: cotton ball granuloma; type: in vivo, SD rats; details: day 8
Procedure: The rats are randomly divided into a model control group, a positive control (dexamethasone) group, and mPEG-SC20k-HM-3 groups using subcutaneous injection at a high dose, a medium dose and a low dose, a total of 5 groups, and the drugs are administered to each group of animals by subcutaneous injection, for 7 days in succession.
Rats in each group are anesthetized with pentobarbital sodium (40 mg/kg) by intraperitoneal injection, and the abdominal coat is cut off. The skin in the middle of the lower abdomen is cut open under aseptic condition, and the incision is about 1 cm long. The subcutaneous tissue is expanded by vascular forceps, and 30 mg of sterile dry cotton balls (weighed accurately by an electronic balance before the test, and undergoing conventional autoclaving and drying for later use) are implanted hypodermically into the groin on one side. The incision is sutured, and an appropriate amount of amoxicillin is sprinkled on the incision to prevent infection.
The drug is administered on the same day after surgery, and is administered for 7 days in succession. On day 8, the rats are killed by cervical dislocation, the cotton balls are removed surgically, the fat tissue is removed, and the […] at 60° C. The mass of granuloma is expressed in mg (granulomatoma)/100 g (body weight). The granuloma mass difference between each administration group and the model control group is compared, and the inhibition rate is calculated. Data statistical analysis is performed on significant differences between the groups.
Inhibition rate (%)=(average granuloma mass of model control group−average granuloma mass of administration group)/average granuloma mass of model control group×100%.

mPEG-SC20k-Ile-Val-Arg-Arg-Ala-Asp-Arg-Ala-Ala-Val-Pro-Gly-Gly-Gly-Gly-Arg-Gly-Asp ({mPEG‑SC 20k}-IVRRADRAAVPGGGGRGD) [polypeptide III, No. 3]
number of related factors down-regulated at the mRNA level [1]: 538 | number of related factors up-regulated at the mRNA level [1]: 499 | Inhibition rate of cotton ball granuloma ([2]; 5 mg/kg sc once two days (G5)): 35.67% | cotton ball granuloma ([2]; 5 mg/kg sc once two days (G5)): 0.19 ± 0.03 mg(cotton ball granuloma)/100 g(weight) | Inhibition rate of cotton ball granuloma ([2]; 10 mg/kg sc once two days (G4)): 39.33% | cotton ball granuloma ([2]; 10 mg/kg sc once two days (G4)): 0.18 ± 0.02 mg(cotton ball granuloma)/100 g(weight) | Inhibition rate of cotton ball granuloma ([2]; 20 mg/kg sc once two days (G3)): 38.23% | cotton ball granuloma ([2]; 20 mg/kg sc once two days (G3)): 0.18 ± 0.03 mg(cotton ball granuloma)/100 g(weight)

— patent publication US20220202912A1, “Polypeptides in Preparation of Drugs for Treatment or Prevention of Rheumatoid Arthritis” (priority 2011, published 2022)
